{"source": "patent US12616681B2", "about": "“Compositions and methods for treating renal injury” (priority 2019, dated 2026)", "key": {"[1]": {"system": "mice with ischemic AKI (bilateral renal IRI)", "test": "Renal IRI (ischemic AKI) mouse model: renal function markers", "format": "in vivo, C57/BL6 mice", "procedure": "Briefly, mice were anesthetized with isoflurane using a vaporizer, and bilateral renal arteries were clamped for 30 min (2, 49). After the ischemic time, clamps were released to induce blood reperfusion. […] Serum and kidney tissue were collected 24 h after renal IRI. […] After reperfusion for 24 h, kidney tissues (˜20 mg) were homogenized in cold PBS containing indomethacin (10 μg/mL) and then centrifuged for 10 min at 12,000 rpm. Protein concentrations of supernatant were determined by BCA assay (ThermoFisher Scientific, Rockford, IL). The PGE2 level was measured using a PGE2 ELISA kit (R&D Systems, Minneapolis, MN) in triplicate. PGE2 levels were expressed as nanograms of PGE2 per milligram of protein. Renal function was assessed by determining the serum levels of blood urea nitrogen (BUN; Abcam), serum creatinine (Agilent 6410 LC-MS/MS, Agilent, Santa Clara, CA), lipocalin-2 (R&D Systems), and kidney injury molecule-1 (KIM-1; R&D Systems) after reperfusion for 24 h. Measurement of serum creatinine was by HPLC. Serum creatinine was assessed using an Agilent 6410 LC-MS/MS system coupled with an Agilent 1200 series HPLC system (Agilent). […] The mixture was centrifuged at 13,000 rpm for 10 min after vigorous vortex, and 1 μL of supernatant was then injected into the LC-MS/MS system. The chromatography separation was performed on a Hypersil GOLD C18 column (150×2.1 mm, 3 m, Thermo Scientific) using a mobile phase of 0.1% formic acid solution and acetonitrile [70:30 (vol/vol)]. The flow rate was 0.2 mL/min. Electrospray ionization was performed in the positive ion mode. The capillary voltage was set at 4,000 V. Nitrogen as the nebulizing gas was set at 15 psi, and the drying gas temperature was set at 300° C., with a flow rate of 6 L/min. The multiple-reaction monitoring mode using specific precursor/production transition was used for quantification. […] The peak areas for all analytes were integrated automatically using Agilent Mass Hunter Analysis software (version B.01.04)."}, "[2]": {"system": "mice with ischemic AKI (bilateral renal IRI)", "test": "Renal IRI model: cAMP, AMP and adenosine levels", "format": "in vivo, C57/BL6 mice", "procedure": "After reperfusion for 24 h, kidney tissues were harvested, homogenized in 10 volumes of 0.1 M HCl, and centrifuged for 10 min at 12,000 rpm. cAMP levels in kidney tissues and serum were measured using a cAMP Complete ELISA kit (Enzo Life Science, Farmingdale, NY). AMP and adenosine in kidney tissue were assessed by Agilent 6410 LC-MS/MS. Serum adenosine was measured using an assay kit (Abnova, Walnut, CA)."}, "[3]": {"system": "mice with ischemic AKI (bilateral renal IRI)", "test": "Renal IRI model: PGE2 (EP1-EP4) and adenosine A2A receptor expression", "format": "in vivo, C57/BL6 mice", "procedure": "PGE2 receptors (EP1, EP2, EP3, and EP4) and adenosineA2A receptor mRNA levels were deter-mined by real-time PCR. Their protein levels were determined by Western blot assay and immunofluorescence analysis."}, "[4]": {"system": "mice with ischemic AKI (bilateral renal IRI)", "test": "Renal IRI model: oxidative stress (MDA in kidney tissue)", "format": "in vivo, C57/BL6 mice", "details": "single pre-IRI dose; vehicle peaked at 2 h at 48%", "procedure": "Reactive oxygen species (ROS) levels were determined by measurement of malondialdehyde (MDA), the end product of lipid peroxidation in kidney lysates. Free MDA reacts with thiobarbituric acid (TBA) at 95° C. to generate an MDA-TBA adduct, which can be quantified colorimetrically at a wavelength of 532 nm. MDA levels were measured in kidney lysates using a lipid peroxidation (MDA) assay kit (Abcam, Cambridge, UK). Results were corrected for total protein level and are expressed as […]."}, "[5]": {"system": "PGE2 levels in kidney tissue", "test": "Renal PGE2 levels in normal mice 1 h after injection (Example 2)", "format": "in vivo", "procedure": "Next, 20 mg kidney tissue was homogenized in […] cold PBS containing indomethacin (10 μg/mL) using a tissue homogenizer. The suspension was sonicated in an ice-water bath for 1 min using cycles of 10 s of sonication with 10 s of cooling, and then they were centrifuged for 10 min at 12,000 rpm. The supernatant was collected for PGE-2 assay. Protein concentrations were determined by bicinchoninic acid assay (Cat. #23225, Thermo Scientific). The PGE2 level in the supernatant was measured using a PGE2 enzyme-linked immunosorbent assay kit (R&D Systems, Minneapolis, MN, USA) in triplicate. PGE-2 levels were expressed as ng of PGE2/mg protein."}, "[6]": {"system": "contrast-induced acute kidney injury (CIAKI) mice", "test": "CIAKI mouse model: necrotic and apoptotic cell death, gross findings", "format": "in vivo, C57/BL6 mice", "details": "48 h after CM", "procedure": "Kidneys were harvested at 48 h after the CM injection, fixed in 4% phosphate-buffered formalin, and embedded in paraffin. To evaluate necrosis, […] paraffin sections were stained with hematoxylin and eosin. Tubular injury was scored semi-quantitatively according to a system by a pathologist who examined at least 20 separate fields (400× magnification) in the outer medulla, which is the zone most sensitive to ischemic injury. The scoring system was as follows: 0, no damage; 1, patchy isolated unicellular necrosis; 2, tubular necrosis <25%; 3, tubular necrosis 25-50%; and 4, tubular necrosis >50%. At least 20 consecutive high-power fields per section were scored by two operators blind to the details of the experiment. To analyze the frequency of apoptosis, […] paraffin sections were subjected to terminal deoxynucleotidyl transferase-mediated dUTP nick-end labeling (TUNEL) assay (Millipore, Temecula, CA, USA) according to the manufacturer's protocol. Four […] paraffin sections were incubated with the TUNEL reaction mixture at 37° C. for 1 h, followed by incubation with a horseradish peroxidase-conjugated detection antibody. The signals were visualized using diaminobenzidine (Sigma-Aldrich). After counterstaining with Mayer's hematoxylin, TUNEL-positive cells were counted in at least five separate fields (640× magnification) in the outer medulla, and the apoptosis index (%, number of apoptosis cells/total number of cells) was calculated using GENASIS software."}, "[7]": {"system": "contrast-induced acute kidney injury (CIAKI) mice", "test": "CIAKI mouse model: PGE2 receptor (EP) expression in kidney tissue", "format": "in vivo, C57/BL6 mice", "details": "CM + drug"}, "[8]": {"details": "24 h after renal IRI, vs IRI-vehicle mice, dosing before and after IRI"}, "[9]": {"details": "pretreatment, mRNA in kidney tissue"}}}
{"smiles": "CCCC[S+]([O-])c1sc2nc(-c3cccs3)cc(-c3ccccc3)c2c1N", "note": "(stereo not drawn) [SW033291]", "values": [{"measurement": "BUN (serum)", "setting": "[1]; [8]", "value": "significantly reducing"}, {"measurement": "KIM-1 (serum)", "setting": "[1]; [8]", "value": "significantly reducing"}, {"measurement": "NGAL (serum)", "setting": "[1]; [8]", "value": "significantly reducing"}, {"measurement": "creatinine (serum)", "setting": "[1]; [8]", "value": "significantly reducing"}, {"measurement": "induction of NGAL, KIM-1, and creatinine", "setting": "[1]; single pre-IRI dose (Pre), time course", "value": "notable protection"}, {"measurement": "IRI-induced decrease of adenosine in the kidney", "setting": "[2]; 24 h after IRI", "value": "reversed"}, {"measurement": "AMP in kidney tissue", "setting": "[2]; 24 h post-IRI", "value": "increased levels"}, {"measurement": "serum adenosine", "setting": "[2]; 24 h post-IRI", "value": "Increased"}, {"measurement": "renal cAMP", "setting": "[2]; 24 h post-IRI, vs sham mice", "value": "elevated over sham mice"}, {"measurement": "adenosine A2A receptor", "setting": "[3]; 24 h, vs sham and IRI mice", "value": "induced"}, {"measurement": "EP4 receptor mRNA levels", "setting": "[3]; 24 h post-IRI", "value": "significantly increased"}, {"measurement": "levels of EP2 receptors", "setting": "[3]; 24 h post-IRI", "value": "no effect"}, {"measurement": "levels of EP3 receptors", "setting": "[3]; 24 h post-IRI", "value": "no effect"}, {"measurement": "EP4 receptor protein", "setting": "[3]; 24 h post-IRI, vs vehicle-treated mice", "value": "more than twice as high"}, {"measurement": "pre-IRI levels of A2A receptors", "setting": "[3]; [9]", "value": "increased"}, {"measurement": "pre-IRI levels of EP4 receptors", "setting": "[3]; [9]", "value": "increased"}, {"measurement": "MDA increase above baseline after renal IRI", "setting": "[4]", "value": 14, "unit": "%"}, {"measurement": "increase of renal PGE2 vs vehicle-administered normal mice", "setting": "[5]; 1 h after administration, average", "value": "three times"}, {"measurement": "renal PGE2 levels", "setting": "[5]; normal mice, 1 h after ip 5 mg/kg", "value": "29.71 ± 2.79", "unit": "ng/mg"}, {"measurement": "vascular congestion in the outer medullary region (gross findings)", "setting": "[6]", "value": "less-congested"}, {"measurement": "proportion of TUNEL-positive cells", "setting": "[6]; CM + drug", "value": "24.01±2.90", "unit": "%"}, {"measurement": "microscopic renal injury score", "setting": "[6]; CM + drug, score 0-4", "value": "0.53±0.16"}, {"measurement": "EP3 expression", "setting": "[7]", "value": "1.00±0.02", "unit": "fold"}, {"measurement": "EP4 expression level", "setting": "[7]", "value": "1.25±0.02", "unit": "fold"}]}
